Holding throughout (format): functional
The subject of test [1] is Spodoptera littoralis. The test can be described thus: Antifeedant activity against Spodoptera littoralis fifth-instar larvae reared on compound exposed lettuce disks assessed as feeding ratio when 50% of control leaf disk area consumed at 10 ug/cm2 measured for 4 to 5 hr by leaf disk choice method.
The subject of test [2] is Spodoptera littoralis. Kind of test: Antifeedant activity against Spodoptera littoralis fifth-instar larvae reared on compound exposed lettuce disks assessed as feeding ratio when 50% of control leaf disk area consumed at 0.1 ug/cm2 measured for 4 to 5 hr by leaf disk choice method.
In test [3] the test system is Spodoptera littoralis. The test can be described thus: Antifeedant activity against Spodoptera littoralis fifth-instar larvae reared on compound exposed lettuce disks assessed as feeding ratio when 50% of control leaf disk area consumed at 1 ug/cm2 measured for 4 to 5 hr by leaf disk choice method.
The subject of test [4] is Spodoptera littoralis. Kind of test: Antifeedant activity against Spodoptera littoralis fifth-instar larvae reared on compound exposed lettuce disks assessed as leaf disk protection at 10 to 1 ug/cm2 measured for 4 to 5 hr by leaf disk choice method.

Regarding TRIPHENYLSTANNYL ACETATE, in the test with Spodoptera littoralis [1], the FR50 was determined as 0.37. As to `CC(=O)O[C@@H]1[C@@H](O)[C@@H]2[C@@H](OC(=O)c3cccnc3)[C@@]3(OC2(C)C)[C@@]1(C)[C@@H](OC(=O)c1ccccc1)CC[C@]3(C)O`, the FR50 with Spodoptera littoralis [1] is 0.74. In the case of `CC[C@H](C)C(=O)O[C@H]1[C@H](O)C[C@@H]2[C@@](C)([C@@H]3C[C@H]4CCO[C@H]4O3)[C@H](C)C[C@H](OC(C)=O)[C@@]2(COC(C)=O)[C@@]12CO2` [14,15-DIHYDROAJUGAPITIN], the FR50 in the test on Spodoptera littoralis [2] came out at 0.32. Regarding `CCC(C)C(=O)O[C@H]1[C@H](OC(C)=O)C[C@@H]2[C@@](C)([C@@H]3C[C@H]4CCO[C@H]4O3)[C@H](C)C[C@H](OC(C)=O)[C@@]2(COC(C)=O)[C@@]12CO2` (stereo partly drawn) [2-acetyl-14,15-dihydroajugapitin], the FR50 in the test on Spodoptera littoralis [2] is recorded as 0.62. `CC(=O)O[C@@H]1[C@@H]2[C@@H](OC(C)=O)[C@]3(OC2(C)C)[C@H](C)C[C@H](OC(C)=O)[C@H](OC(C)=O)[C@@]3(CO)[C@H]1OC(=O)c1ccccc1`: the FR50 with Spodoptera littoralis [3] is recorded as 0.53; in the test with Spodoptera littoralis [1] it was 0.07.

For the compound `CC(=O)O[C@@H]1[C@@H]2[C@@H](OC(C)=O)[C@]3(OC2(C)C)[C@H](C)C[C@H](OC(C)=O)[C@H](OC(C)=O)[C@@]3(CO)[C@@H]1OC(=O)c1ccccc1`, the FR50 came to 0.65 in the test on Spodoptera littoralis [3] and 0.16 in the test with Spodoptera littoralis [1].

In the case of `CC(=O)O[C@H]1C[C@@H]2[C@@H](OC(=O)c3cccnc3)[C@@]3(OC2(C)C)[C@@]1(C)[C@@H](OC(=O)c1ccccc1)CC[C@]3(C)O`, in the test with Spodoptera littoralis [1], the FR50 is 0.68. `CC(=O)O[C@H]1[C@@H]2[C@@H](OC(C)=O)[C@@]3(OC2(C)C)[C@@](C)([C@@H](OC(=O)c2ccccc2)CC[C@]3(C)O)[C@@H]1OC(C)=O`: the FR50 with Spodoptera littoralis [3] was 0.4; in the test with Spodoptera littoralis [1], 0.12. With `CC(=O)O[C@H]1[C@H](OC(=O)c2ccccc2)[C@@]2(C)[C@@H](OC(=O)c3ccccc3)C[C@@H]3[C@@H](OC(C)=O)[C@]2(OC3(C)C)[C@@](C)(O)[C@H]1O` [2BETA,3BETA,4BETA,TRIHYDROXYCELARBICO], the figures for the FR50 with Spodoptera littoralis [3] and with Spodoptera littoralis [1] were 0.44 and 0.24, respectively.

`CC(=O)O[C@H]1[C@@H]2C[C@@]3(OC2(C)C)[C@](C)([C@H]1OC(=O)c1ccccc1)[C@@H](OC(=O)c1ccccc1)[C@H](OC(C)=O)[C@H](OC(C)=O)[C@]3(C)O` [2BETA,3BETA,4BETA-TRIHYDROXYCELAPANOL]: the FR50 in the test on Spodoptera littoralis [1] came to 0.38. For `CCC(C)C(=O)O[C@H]1[C@H](O)C[C@@H]2[C@@](C)([C@@H]3C[C@H]4C=CO[C@H]4O3)[C@H](C)C[C@H](OC(C)=O)[C@@]2(COC(C)=O)[C@@]12CO2` (stereo partly drawn) [AJUGAPITIN], in the test with Spodoptera littoralis [2], the FR50 is 0.41.

Regarding `CC(=O)OC[C@@]12[C@@H](OC(=O)/C=C/c3ccccc3)CC[C@](C)(O)[C@]13OC(C)(C)[C@H]([C@@H](OC(C)=O)[C@H]2OC(=O)c1ccccc1)[C@H]3OC(C)=O`, the FR50 with Spodoptera littoralis [1] stood at 0.27. Turning to `CC(=O)OC[C@@]12[C@@H](OC(=O)c3ccccc3)CC[C@](C)(O)[C@]13OC(C)(C)[C@H]([C@@H](OC(C)=O)[C@H]2OC(=O)c1ccccc1)[C@H]3OC(C)=O`, the FR50 was determined as 0.58 in the test on Spodoptera littoralis [3] and 0.24 in the test with Spodoptera littoralis [1].

Turning to `CC(=O)O[C@H]1C[C@@H](C)[C@]23OC(C)(C)[C@H](C[C@H](OC(=O)c4ccccc4)[C@]2(CO)[C@H]1OC(C)=O)[C@H]3OC(C)=O`, the FR50 in the test on Spodoptera littoralis [1] was 0.36. On to `CC(=O)OC[C@]12[C@@H](OC(=O)c3ccccc3)[C@H](OC(C)=O)[C@@H]3[C@@H](OC(C)=O)[C@]1(OC3(C)C)[C@H](C)C[C@H](OC(C)=O)[C@@H]2OC(C)=O`, for which the FR50 in the test on Spodoptera littoralis [3] is 0.71; in the test on Spodoptera littoralis [1] it was 0.13. As to `CC(=O)O[C@H]1[C@@H]2[C@@H](OC(=O)c3cccnc3)[C@@]3(OC2(C)C)[C@@](C)([C@@H](OC(=O)c2ccccc2)CC[C@]3(C)O)[C@@H]1OC(C)=O`, the values for the FR50 in the test on Spodoptera littoralis [2], in the test with Spodoptera littoralis [3] and in the test on Spodoptera littoralis [1] were 0.45, 0.15 and 0.04, respectively. Besides, the Activity with Spodoptera littoralis [4] is given as 100%. For the compound `CC(=O)OC[C@]12[C@@H](OC(=O)c3ccccc3)C[C@@H]3[C@@H](OC(C)=O)[C@]1(OC3(C)C)[C@H](C)C[C@H](OC(C)=O)[C@@H]2OC(C)=O`, the FR50 with Spodoptera littoralis [3] worked out at 0.54; in the test with Spodoptera littoralis [1] it was 0.19.

In the case of `CC(=O)OC[C@]12[C@H](OC(=O)c3ccccc3)[C@H](OC(C)=O)[C@@H]3[C@@H](OC(C)=O)[C@]1(OC3(C)C)[C@@](C)(O)C[C@H](OC(C)=O)[C@@H]2OC(=O)c1ccccc1`, in the test with Spodoptera littoralis [1], the FR50 was 0.35.

The values above are taken from ChEMBL document CHEMBL3045149, “Antifeedant activity of dihydro--agarofuran sesquiterpenes from Celastraceae against Spodoptera littoralis” (1992).
